Measured values from patent US8912209B2, “Rock inhibitors” (Amakem NV, priority 2010, dated 2014).

Biological target: T1, ROCK II (Homo sapiens, UniProt O75116)
T1 construct: purchased Proqinase
Test: ROCK II kinase inhibition, Method 1 Proqinase setup (33P radioisotopic protein kinase assay)
Assay type: biochemical
Details: 33P radioisotopic assay, 1 μM ATP, read-out: IC50 Meth. 1
Procedure: A ^33P radioisotopic protein kinase assay is used to determine the IC50 for inhibiting ROCK II. A final 50 μl reaction cocktail, containing 60 mM HEPES-NaOH (pH 7.5), 3 mM MgCl2, 3 mM MnCl2, 3 μM Na-orthovanadate, 1.2 mM DTT, 1 μM ATP, 50 μg/ml PEG20.000, 1% (v/v) DMSO, 1 μM ATP (approx. 3×10^5 cpm ^33P-γ-ATP), the substrate (Substrate: S6 peptide—2000 ng/well) and recombinant protein kinase (0.5 nM-2.5 ng/well) is mixed on a shaker and incubated at 30° C. for 80 minutes. The reaction is stopped by the addition of 50 μl of a 2% solution of H3PO4 and mixed on a shaker. After washing twice with 200 μl of a 0.9% solution of NaCl, the dry plate is counted.

T1 sequence (O75116 whole entry): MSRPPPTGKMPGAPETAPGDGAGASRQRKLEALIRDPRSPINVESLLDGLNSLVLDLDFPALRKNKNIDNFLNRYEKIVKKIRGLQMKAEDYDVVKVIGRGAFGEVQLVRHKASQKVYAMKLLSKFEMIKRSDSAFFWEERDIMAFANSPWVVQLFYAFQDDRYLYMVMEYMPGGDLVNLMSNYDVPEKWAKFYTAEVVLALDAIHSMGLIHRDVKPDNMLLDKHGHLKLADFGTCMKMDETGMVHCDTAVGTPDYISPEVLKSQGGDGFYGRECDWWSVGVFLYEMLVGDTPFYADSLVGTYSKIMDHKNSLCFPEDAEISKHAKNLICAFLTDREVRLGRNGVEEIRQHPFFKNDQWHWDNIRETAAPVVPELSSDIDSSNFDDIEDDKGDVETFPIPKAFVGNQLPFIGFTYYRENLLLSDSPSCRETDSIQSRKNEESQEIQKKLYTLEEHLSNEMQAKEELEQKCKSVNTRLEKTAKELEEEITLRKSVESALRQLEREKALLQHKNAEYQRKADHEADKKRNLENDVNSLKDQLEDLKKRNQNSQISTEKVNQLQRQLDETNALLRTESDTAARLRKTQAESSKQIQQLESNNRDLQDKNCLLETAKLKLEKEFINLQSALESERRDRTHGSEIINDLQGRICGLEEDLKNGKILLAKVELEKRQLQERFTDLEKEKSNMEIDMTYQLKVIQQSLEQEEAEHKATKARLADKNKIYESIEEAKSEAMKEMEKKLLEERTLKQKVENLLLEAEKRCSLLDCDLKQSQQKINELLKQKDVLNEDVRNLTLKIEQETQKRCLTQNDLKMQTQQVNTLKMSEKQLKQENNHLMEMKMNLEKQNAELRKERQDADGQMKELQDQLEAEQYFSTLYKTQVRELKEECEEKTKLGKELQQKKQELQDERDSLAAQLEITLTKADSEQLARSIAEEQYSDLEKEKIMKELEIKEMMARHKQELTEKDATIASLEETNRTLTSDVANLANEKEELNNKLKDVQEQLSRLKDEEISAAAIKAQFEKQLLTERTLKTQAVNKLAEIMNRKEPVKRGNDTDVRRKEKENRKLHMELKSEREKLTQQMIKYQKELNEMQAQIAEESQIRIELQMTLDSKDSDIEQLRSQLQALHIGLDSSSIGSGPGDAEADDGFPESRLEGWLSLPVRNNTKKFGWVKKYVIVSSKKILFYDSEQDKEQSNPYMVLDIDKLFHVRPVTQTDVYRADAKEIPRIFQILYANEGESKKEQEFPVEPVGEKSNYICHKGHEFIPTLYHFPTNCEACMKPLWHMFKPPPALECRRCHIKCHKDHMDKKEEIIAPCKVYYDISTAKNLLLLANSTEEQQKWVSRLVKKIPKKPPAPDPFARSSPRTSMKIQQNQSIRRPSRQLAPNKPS

| Compound | IC50 |
| --- | --- |
| 2′-Aminomethyl-5′- (pyridin-4-ylcarbamoyl)- biphenyl-3-carboxylic acid 2-methoxy-propyl ester [Compound 42] | 0.1 to 1 µM |
| COC(=O)c1cccc(-c2cc(C(=O)Nc3ccncc3)ccc2CN)c1 [Compound 1, 2′-Aminomethyl-5′-(pyridin-4-ylcarbamoyl)-biphenyl-3-carboxylic acid methyl ester] | < 0.1 µM |

Biological target: T2, ROCKα/ROCKII (Homo sapiens, UniProt O75116)
T2 construct: purchased Upstate Biotechnology 14-451
Test: ROCK inhibition, Method 2 fluorescence polarization (FP) assay, ROCK IMAP Kit
Assay type: biochemical
Details: 10 μM ATP, read-out: IC50 Meth. 2
Procedure: The inhibition assays were performed with a fluorescence polarization (FP) assay using the commercially available ROCK IMAP Kit from Molecular Devices (Product ID. No. R8093), essentially in accordance with the protocol supplied by the manufacturer. […] The enzyme mix ROCKα/ROCKII was obtained from Upstate Biotechnology (Product ID No 14-451).
In summary, all compounds were screened in the wells of a 384 well plate for enzymatic inhibition with concentrations varying from 100 μM to 0.3 nM using a stepwise 3 (or 2)-fold dilution.
To perform the assay, 1 μl of a solution of the compound to be tested in DMSO (at each concentration) was added to 2 μl of a solution of the enzyme in 10 mM Tris-HCl, 10 mM MgCl2, 0.1% BSA, 0.05% NaN3, pH 7,2. The final concentration of the enzyme was 2.6 nM.
After incubating for 30 minutes at RT, 2 μl of a mixture of ATP and the protein substrate in 10 mM Tris-HCl, 10 mM MgCl2, 0.1% BSA, 0.05% NaN3, pH 7.2 was added. The final concentration of the ATP was 10 μM and final concentration of protein substrate was 0.2 μM.
After incubating for 60 minutes at RT, 12 μl of the IMAP Binding Solution (mix of the IMAP Binding Buffer A (1×) and the IMAP Binding Reagent (from the ROCK IMAP kit)) was added.
The mixture thus obtained (total volume: 17 μl) was incubated for 60 minutes at RT, upon which the fluorescence polarization was measured using an automated plate reader (Perkin Elmer, Model Envision 2100-0010 HTS) with FP filters: excitation filter FITC FP 480 and emission filters FITC FP P-pol 535 and FITC FP S-pol 535 (Perkin-Elmer). The results were fitted to a curve using the XL-Fit algorithm and IC50 values were calculated for each fitted curve, again using the XL-Fit algorithm.

T2 sequence (O75116 whole entry): as above

| Compound | IC50 |
| --- | --- |
| COc1ccc(OC(=O)c2cccc(-c3cc(C(=O)Nc4ccncc4F)ccc3C(C)N)c2)cc1OC (stereo not drawn) [Compound 78, 2′-(1-Amino-ethyl)-5′-(3-fluoro-pyridin-4-ylcarbamoyl)-biphenyl-3-carboxylic acid 3,4-dimethoxy-phenyl ester] | < 0.1 µM |
| COc1cc(OC(=O)c2cccc(-c3cc(C(=O)Nc4ccncc4F)ccc3C(C)N)c2)cc(OC)c1OC (stereo not drawn) [Compound 79, 2′-(1-Amino-ethyl)-5′-(3-fluoro-pyridin-4-ylcarbamoyl)-biphenyl-3-carboxylic acid 3,4,5-trimethoxy phenylester] | < 0.1 µM |
| COc1cc(OC(=O)c2cccc(-c3cc(C(=O)Nc4ccncc4)ccc3C(C)N)c2)cc(OC)c1OC (stereo not drawn) [Compound 80, 2′-(1-Amino-ethyl)-5′-(pyridin-4-ylcarbamoyl)-biphenyl-3-carboxylic acid 3,4,5-trimethoxy-phenyl ester] | 0.1 to 1 µM |
| COc1ccc(OC(=O)c2cccc(-c3cc(C(=O)Nc4ccncc4)ccc3C(C)N)c2)c(OC)c1OC (stereo not drawn) [Compound 81, 2′-(1-Amino-ethyl)-5′-(pyridin-4-ylcarbamoyl)-biphenyl-3-carboxylic acid 2,3,4-trimethoxy-phenyl ester] | < 0.1 µM |
| CSc1ccc(OC(=O)c2cccc(-c3cc(C(=O)Nc4ccncc4)ccc3C(C)N)c2)cc1 (stereo not drawn) [Compound 82, 2′-(1-Amino-ethyl)-5′-(pyridin-4-ylcarbamoyl)-biphenyl-3-carboxylic acid 4-methylsulfanyl-phenyl ester] | < 0.1 µM |
| CC(N)c1ccc(C(=O)Nc2ccncc2)cc1-c1cccc(C(=O)OCc2c(F)c(F)c(F)c(F)c2F)c1 (stereo not drawn) [Compound 83, 2′-(1-Amino-ethyl)-5′-(pyridin-4-ylcarbamoyl)-biphenyl-3-carboxylic acid pentafluoro-phenylmethyl ester] | 0.1 to 1 µM |
| CC(N)c1ccc(C(=O)Nc2ccncc2)cc1-c1cccc(C(=O)OCc2ccc(Br)cc2)c1 (stereo not drawn) [Compound 84, 2′-(1-Amino-ethyl)-5′-(pyridin-4-ylcarbamoyl)-biphenyl-3-carboxylic acid 4-bromo-benzyl ester] | 0.1 to 1 µM |
| CC(N)c1ccc(C(=O)Nc2ccncc2)cc1-c1cccc(C(=O)OCc2ccccc2[N+](=O)[O-])c1 (stereo not drawn) [Compound 85, 2′-(1-Amino-ethyl)-5′-(pyridin-4-ylcarbamoyl)-biphenyl-3-carboxylic acid 2-nitro-benzyl ester] | 0.1 to 1 µM |
| CC(N)c1ccc(C(=O)Nc2ccncc2)cc1-c1cccc(C(=O)OCCc2ccccc2)c1 (stereo not drawn) [Compound 87, 2′-(1-Amino-ethyl)-5′-(pyridin-4-ylcarbamoyl)-biphenyl-3-carboxylic acid phenethyl ester] | 0.1 to 1 µM |
| CC(N)c1ccc(C(=O)Nc2ccncc2)cc1-c1cccc(C(=O)OCCc2cccs2)c1 (stereo not drawn) [Compound 91, 2′-(1-Amino-ethyl)-5′-(pyridin-4-ylcarbamoyl)-biphenyl-3-carboxylic acid 2-thiophen-2-yl-ethyl ester] | 0.1 to 1 µM |
| CC(N)c1ccc(C(=O)Nc2ccncc2)cc1-c1cccc(C(=O)OCCc2ccsc2)c1 (stereo not drawn) [Compound 92, 2′-(1-Amino-ethyl)-5′-(pyridin-4-ylcarbamoyl)-biphenyl-3-carboxylic acid 2-thiophen-3-yl-ethyl ester] | 0.1 to 1 µM |
| CC(N)c1ccc(C(=O)Nc2ccncc2)cc1-c1cccc(C(=O)OCCc2ccccn2)c1 (stereo not drawn) [Compound 93, 2′-(1-Amino-ethyl)-5′-(pyridin-4-ylcarbamoyl)-biphenyl-3-carboxylic acid 2-pyridin-2-yl-ethyl ester] | < 0.1 µM |
| CC(N)c1ccc(C(=O)Nc2ccncc2)cc1-c1cccc(C(=O)OCC2CCc3ccccc3C2)c1 (stereo not drawn) [Compound 94, 2′-(1-Amino-ethyl)-5′-(pyridin-4-ylcarbamoyl)-biphenyl-3-carboxylic acid 1,2,3,4-tetrahydro-naphthalen-2-ylmethyl ester] | 0.1 to 1 µM |
| CC(N)c1ccc(C(=O)Nc2ccncc2)cc1-c1cccc(C(=O)OCCN2C(=O)c3ccccc3C2=O)c1 (stereo not drawn) [Compound 95, 2′-(1-Amino-ethyl)-5′-(pyridin-4-ylcarbamoyl)-biphenyl-3-carboxylic acid 2-(1,3-dioxo-1,3-dihydro-isoindol-2-yl)-ethyl ester] | 0.1 to 1 µM |
| CC(N)c1ccc(C(=O)Nc2ccncc2)cc1-c1cccc(C(=O)OCC(=O)c2ccc(Br)cc2)c1 (stereo not drawn) [Compound 96, 2′-(1-Amino-ethyl)-5′-(pyridin-4-ylcarbamoyl)-biphenyl-3-carboxylic acid 2-(4-bromo-phenyl)-2-oxo-ethyl ester] | < 0.1 µM |
| CC(N)c1ccc(C(=O)Nc2ccncc2)cc1-c1cccc(C(=O)SC(C)(C)C)c1 (stereo not drawn) [Compound 101, 2′-(1-Amino-ethyl)-5′-(pyridin-4-ylcarbamoyl)-biphenyl-3-carbothioic acid S-tert-butyl ester] | < 0.1 µM |
| CCOC(=O)CCNC(=O)c1cccc(-c2cc(C(=O)Nc3ccncc3)ccc2C(C)N)c1 (stereo not drawn) [Compound 105, 3-{[2′-(1-Amino-ethyl)-5′-(pyridin-4-ylcarbamoyl)-biphenyl-3-carbonyl]-amino}-propionic acid ethyl ester] | < 0.1 µM |
| CC(N)c1ccc(C(=O)Nc2ccncc2)cc1-c1cccc(C(=O)NC2CCSC2=O)c1 (stereo not drawn) [Compound 112, 6-(1-Amino-ethyl)-biphenyl-3,3′-dicarboxylic acid 3′-[(2-oxo-tetrahydro-thiophen-3-yl)-amide] 3-pyridin-4-ylamide] | < 0.1 µM |
| CC(N)c1ccc(C(=O)Nc2ccncc2)cc1-c1cccc(OCCSC2CCOC2=O)c1 (stereo not drawn) [Compound 130, 6-(1-Amino-ethyl)-3′-[2-(2-oxo-tetrahydro-furan-3-ylsulfanyl)-ethoxy]-biphenyl-3-carboxylylic acid pyridin-4-ylamide] | < 0.1 µM |
| CCCOC(=O)COc1cccc(-c2cc(C(=O)Nc3ccncc3F)ccc2C(C)N)c1 (stereo not drawn) [Compound 141, [2′-(1-Amino-ethyl)-5′-(3-fluoro-pyridin-4-ylcarbamoyl)-biphenyl-3-yloxy]-acetic acid propyl ester] | 0.1 to 1 µM |
| CC(N)c1ccc(C(=O)Nc2ccncc2F)cc1-c1cccc(OCC(=O)Oc2ccccc2)c1 (stereo not drawn) [Compound 142, [2′-(1-Amino-ethyl)-5′-(3-fluoro-pyridin-4-ylcarbamoyl)-biphenyl-3-yloxy]-acetic acid phenyl ester] | 0.1 to 1 µM |
| CCOC(=O)CSCC(=O)Nc1cccc(-c2cc(C(=O)Nc3ccncc3)ccc2C(C)N)c1 (stereo not drawn) [Compound 154, {[2′-(1-Aminoethyl)-5′-(pyridin-4-ylcarbamoyl)-biphenyl-3-ylcarbamoyl]-methylsulfanyl}-acetic acid ethyl ester] | < 0.1 µM |
| CC(N)c1ccc(C(=O)Nc2ccncc2)cc1-c1cccc(NC(=O)CC2CC(=O)Oc3ccccc32)c1 (stereo not drawn) [Compound 155, 6-(1-Amino-ethyl)-3′-[2-(2-oxo-chroman-4-yl)-acetylamino]-biphenyl-3-carboxylic acid pyridin-4-ylamide] | < 0.1 µM |
| CC(N)c1ccc(C(=O)Nc2ccncc2)cc1-c1cccc2[nH]c(C(=O)Oc3ccccc3)cc12 (stereo not drawn) [Compound 173, 4-[2-(1-Amino-ethyl)-5-(pyridin-4-ylcarbamoyl)-phenyl]-1H-indole-2-carboxylic acid phenyl ester] | 0.1 to 1 µM |
| CCCOC(=O)c1cccc(-c2cc(C(=O)Nc3ccncc3F)ccc2CN)c1 [Compound 174] | 0.1 to 1 µM |
| NCc1ccc(C(=O)Nc2ccncc2F)cc1-c1cccc(C(=O)Oc2ccccc2)c1 [Compound 175] | < 0.1 µM |
| CC(N)c1ccc(C(=O)Nc2ccncc2)cc1-c1cccc(C(=O)Oc2ccc3c(c2)OC(=O)CC3)c1 (stereo not drawn) [Compound 176] | < 0.1 µM |
| CC(N)c1ccc(C(=O)Nc2ccncc2F)cc1-c1cccc(OCCSC2CCOC2=O)c1 (stereo not drawn) [Compound 177] | 0.1 to 1 µM |
